# Measured values from patent publication US20230364070A1, “PYRROLO[3,2-C]PYRIDIN-4-ONE DERIVATIVES USEFUL IN THE TREATMENT OF CANCER” (Scorpion Therapeutics, Inc., priority 2020, published 2023).
# Experiments:
# Format in all cases: cell-based
# Ba/F3 cells with EGFR WT = molecular target: T1, Ba/F3 cells with EGFR WT (Homo sapiens, UniProt P00533); experiment: EGFR activity: Ba/F3 cell viability (CellTiter-Glo, 72 h), EGFR WT; conditions: read-out: BaF3 WT IC50
# T1 construct: expressed in transfected cells; host or cells: Ba/F3 (murine pro-B cells), retroviral transduction, puromycin selection, maintained with EGF
# [1] = molecular target: T2, Ba/F3 cells with EGFR exon 20 NPG Ins D770_N771 (Homo sapiens, UniProt P00533, INS770NPG); experiment: EGFR activity: Ba/F3 cell viability (CellTiter-Glo, 72 h), EGFR exon 20 NPG insertion; conditions: EGFR exon 20 NPG Ins D770_N771, cell viability, read-out: BaF3 NPG IC50
# T2 construct: expressed in transfected cells; host or cells: Ba/F3 (murine pro-B cells), retroviral transduction, puromycin selection, IL3-independent pool
# [2] = molecular target: T3, Ba/F3 cells with EGFR exon 20 ASV Ins V769_D770 (Homo sapiens, UniProt P00533, INS769ASV); experiment: EGFR activity: Ba/F3 cell viability (CellTiter-Glo, 72 h), EGFR exon 20 ASV insertion; conditions: EGFR exon 20 ASV Ins V769_D770, cell viability, read-out: BaF3 ASV IC50
# T3 construct: expressed in transfected cells; host or cells: Ba/F3 (murine pro-B cells), retroviral transduction, puromycin selection, IL3-independent pool
# pEGFR in CUTO14 cells = molecular target: T4, pEGFR in CUTO14 cells (Homo sapiens, UniProt P00533, DUP767-769); experiment: Inhibitor activity on EGFR phosphorylation (pEGFR AlphaLISA, 2 h), CUTO14 cells
# T4 construct: endogenous in cells; host or cells: CUTO14 cells
# Protocol: CUTO14 cells were obtained from Dr. Robert C. Doebele at the University of Colorado.
# Shake 350 rpm for 1 hr in the dark • 3.4 Prepare donor mix under low light conditions prior to use. Dispense 5 μL of donor mix to all the wells. Mix well on the shaker, seal and wrap in aluminum foil and incubate 1.5 hrs at room temperature in the dark • 3.5 Transfer 18.5 μL mixture to OptiPlate 384, and read using an Envision.
# T2 sequence (P00533 with tags, fused parts or gaps INS770NPG): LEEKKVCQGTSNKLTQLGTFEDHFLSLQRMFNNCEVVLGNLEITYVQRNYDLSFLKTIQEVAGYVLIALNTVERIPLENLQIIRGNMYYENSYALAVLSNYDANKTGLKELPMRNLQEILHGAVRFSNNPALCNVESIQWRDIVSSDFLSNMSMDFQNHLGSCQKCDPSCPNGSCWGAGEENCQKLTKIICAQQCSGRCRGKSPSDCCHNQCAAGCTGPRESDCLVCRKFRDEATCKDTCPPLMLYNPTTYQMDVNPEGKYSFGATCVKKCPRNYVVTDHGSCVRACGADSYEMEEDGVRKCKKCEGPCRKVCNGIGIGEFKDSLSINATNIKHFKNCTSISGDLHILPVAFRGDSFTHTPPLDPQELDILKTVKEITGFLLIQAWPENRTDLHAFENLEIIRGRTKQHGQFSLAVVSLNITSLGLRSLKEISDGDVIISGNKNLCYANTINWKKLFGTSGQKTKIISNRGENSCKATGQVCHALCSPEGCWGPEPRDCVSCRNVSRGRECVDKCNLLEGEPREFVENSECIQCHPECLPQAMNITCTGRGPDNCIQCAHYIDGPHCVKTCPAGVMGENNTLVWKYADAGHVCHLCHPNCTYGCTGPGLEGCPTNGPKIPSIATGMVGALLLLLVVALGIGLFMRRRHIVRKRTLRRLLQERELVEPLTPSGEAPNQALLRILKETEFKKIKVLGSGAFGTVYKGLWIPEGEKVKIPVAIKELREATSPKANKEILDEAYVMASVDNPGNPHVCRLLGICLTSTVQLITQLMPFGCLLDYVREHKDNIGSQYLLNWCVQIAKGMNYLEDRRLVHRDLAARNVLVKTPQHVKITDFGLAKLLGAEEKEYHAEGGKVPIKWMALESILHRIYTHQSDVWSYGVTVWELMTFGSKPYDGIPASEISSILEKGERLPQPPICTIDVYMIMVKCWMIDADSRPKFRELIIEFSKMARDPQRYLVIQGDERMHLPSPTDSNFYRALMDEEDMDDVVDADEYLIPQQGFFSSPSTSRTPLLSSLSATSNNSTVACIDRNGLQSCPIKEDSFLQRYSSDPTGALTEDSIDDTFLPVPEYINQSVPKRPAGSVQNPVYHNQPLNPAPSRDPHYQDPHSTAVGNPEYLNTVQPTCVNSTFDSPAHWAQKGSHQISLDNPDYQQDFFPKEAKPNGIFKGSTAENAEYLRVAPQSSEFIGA
# T1 sequence (P00533 25-1210): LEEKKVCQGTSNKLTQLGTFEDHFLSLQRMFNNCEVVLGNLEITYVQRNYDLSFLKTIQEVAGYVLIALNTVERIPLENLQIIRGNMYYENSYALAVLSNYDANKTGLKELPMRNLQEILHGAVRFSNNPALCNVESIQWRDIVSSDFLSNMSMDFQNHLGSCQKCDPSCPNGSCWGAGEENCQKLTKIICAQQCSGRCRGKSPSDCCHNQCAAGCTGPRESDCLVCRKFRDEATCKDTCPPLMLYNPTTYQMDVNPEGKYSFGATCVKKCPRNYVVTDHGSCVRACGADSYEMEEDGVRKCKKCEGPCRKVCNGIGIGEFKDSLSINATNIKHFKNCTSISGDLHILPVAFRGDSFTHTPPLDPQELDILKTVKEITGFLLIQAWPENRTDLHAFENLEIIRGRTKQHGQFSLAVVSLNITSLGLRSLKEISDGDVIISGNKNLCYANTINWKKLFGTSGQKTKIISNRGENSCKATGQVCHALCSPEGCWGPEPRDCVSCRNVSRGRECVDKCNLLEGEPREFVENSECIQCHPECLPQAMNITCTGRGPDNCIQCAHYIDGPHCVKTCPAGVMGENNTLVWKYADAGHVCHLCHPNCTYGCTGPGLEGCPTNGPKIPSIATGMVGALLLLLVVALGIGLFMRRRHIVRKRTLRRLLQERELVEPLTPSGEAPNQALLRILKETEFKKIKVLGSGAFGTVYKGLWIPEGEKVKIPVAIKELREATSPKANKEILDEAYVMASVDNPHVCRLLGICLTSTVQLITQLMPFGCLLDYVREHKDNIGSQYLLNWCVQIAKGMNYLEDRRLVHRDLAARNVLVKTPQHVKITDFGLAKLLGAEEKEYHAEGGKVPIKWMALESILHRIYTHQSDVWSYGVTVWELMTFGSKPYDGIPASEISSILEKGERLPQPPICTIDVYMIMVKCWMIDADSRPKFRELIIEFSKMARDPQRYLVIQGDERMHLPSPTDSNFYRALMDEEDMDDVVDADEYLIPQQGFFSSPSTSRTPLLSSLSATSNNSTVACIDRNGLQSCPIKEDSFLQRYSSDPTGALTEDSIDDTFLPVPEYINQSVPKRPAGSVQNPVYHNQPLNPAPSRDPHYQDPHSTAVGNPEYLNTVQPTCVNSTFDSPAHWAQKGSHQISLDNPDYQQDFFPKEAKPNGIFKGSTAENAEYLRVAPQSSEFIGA
# T3 sequence (P00533 with tags, fused parts or gaps INS769ASV): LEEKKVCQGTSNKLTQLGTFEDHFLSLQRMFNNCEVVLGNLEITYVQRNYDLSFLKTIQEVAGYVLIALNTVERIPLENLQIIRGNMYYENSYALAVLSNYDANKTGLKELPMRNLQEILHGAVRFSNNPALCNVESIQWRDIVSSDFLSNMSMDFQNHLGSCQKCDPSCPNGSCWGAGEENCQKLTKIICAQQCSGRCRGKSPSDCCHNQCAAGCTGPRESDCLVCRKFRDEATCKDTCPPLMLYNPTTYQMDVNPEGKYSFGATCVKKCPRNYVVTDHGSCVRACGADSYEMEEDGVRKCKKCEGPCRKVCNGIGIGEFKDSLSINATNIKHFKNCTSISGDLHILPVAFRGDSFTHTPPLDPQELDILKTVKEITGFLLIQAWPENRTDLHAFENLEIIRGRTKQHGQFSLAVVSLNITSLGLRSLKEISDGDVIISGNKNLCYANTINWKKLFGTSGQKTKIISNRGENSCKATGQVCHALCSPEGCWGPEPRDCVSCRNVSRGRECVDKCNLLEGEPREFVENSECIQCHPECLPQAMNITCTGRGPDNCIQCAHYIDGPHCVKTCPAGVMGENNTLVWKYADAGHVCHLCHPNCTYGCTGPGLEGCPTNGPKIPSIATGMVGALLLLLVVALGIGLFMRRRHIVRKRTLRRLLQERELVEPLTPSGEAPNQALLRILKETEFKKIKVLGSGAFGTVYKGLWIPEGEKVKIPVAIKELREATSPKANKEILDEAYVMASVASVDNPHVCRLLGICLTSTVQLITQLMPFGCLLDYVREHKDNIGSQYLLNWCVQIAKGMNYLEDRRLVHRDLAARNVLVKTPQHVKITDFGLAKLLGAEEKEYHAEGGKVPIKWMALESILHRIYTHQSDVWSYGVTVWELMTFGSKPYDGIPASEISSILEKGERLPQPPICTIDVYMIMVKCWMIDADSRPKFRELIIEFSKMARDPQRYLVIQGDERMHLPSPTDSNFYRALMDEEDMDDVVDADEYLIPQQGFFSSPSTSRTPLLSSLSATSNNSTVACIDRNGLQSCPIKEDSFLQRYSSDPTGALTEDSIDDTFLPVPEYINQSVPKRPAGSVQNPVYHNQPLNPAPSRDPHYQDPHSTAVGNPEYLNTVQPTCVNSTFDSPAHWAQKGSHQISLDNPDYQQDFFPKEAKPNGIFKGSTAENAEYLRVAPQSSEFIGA
# T4 sequence (P00533 with tags, fused parts or gaps DUP767-769): as the sequence (P00533 with tags, fused parts or gaps INS769ASV) above
SMILES,IC50 (Ba/F3 cells with EGFR WT) [nM],IC50 [1] [nM],IC50 [2] [nM],IC50 (pEGFR in CUTO14 cells) [nM]
COc1c(F)cccc1Nc1c(-c2ccncc2OC[C@@]2(C)CCN2C(=O)/C=C/CN(C)C)[nH]c2c1C(=O)NCC2 [compound 422],100 to 1000,< 100,< 100,< 100
COc1c(F)cccc1Nc1c(-c2ccncc2OC[C@]2(C)CCN2C(=O)/C=C/CN(C)C)[nH]c2c1C(=O)NCC2 [compound 423],> 1000,< 100,< 100,< 100
COc1c(Cl)cccc1Nc1c(-c2ccncc2OC[C@]2(C)CCN2C(=O)/C=C/CN(C)C)[nH]c2c1C(=O)NCC2 [compound 424],100 to 1000,< 100,< 100,< 100
COc1c(Cl)cccc1Nc1c(-c2ccncc2OC[C@@]2(C)CCN2C(=O)/C=C/CN(C)C)[nH]c2c1C(=O)NCC2 [compound 425],100 to 1000,< 100,< 100,< 100
CCc1c(F)cccc1Nc1c(-c2ccncc2OC[C@@]2(C)CCN2C(=O)/C=C/CN(C)C)[nH]c2c1C(=O)NCC2 [compound 426],100 to 1000,< 100,< 100,< 100
CCc1c(F)cccc1Nc1c(-c2ccncc2OC[C@]2(C)CCN2C(=O)/C=C/CN(C)C)[nH]c2c1C(=O)NCC2 [compound 427],100 to 1000,< 100,< 100,< 100
CC#CC(=O)N1CCOC[C@H]1COc1cnccc1-c1[nH]c2c(c1Nc1cccc(Cl)c1OC)C(=O)NCC2 [compound 429],100 to 1000,< 100,100 to 1000,100 to 1000
C=CC(=O)N1CCC[C@]1(C)C#Cc1cnccc1-c1[nH]c2c(c1Nc1cc(F)cc(Cl)c1OC)C(=O)NCC2 [compound 430],100 to 1000,< 100,< 100,< 100
CC#CC(=O)N1CCC[C@]1(C)C#Cc1cnccc1-c1[nH]c2c(c1Nc1cc(F)cc(Cl)c1OC)C(=O)NCC2 [compound 431],100 to 1000,< 100,< 100,< 100
COc1c(Cl)cccc1Nc1c(-c2ccncc2C#C[C@@]2(C)CCCN2C(=O)C#CCN(C)C)[nH]c2c1C(=O)NCC2 [compound 433],100 to 1000,< 100,< 100,< 100
COc1c(F)cccc1Nc1c(-c2ccncc2C#C[C@@]2(C)CCCN2C(=O)C#CCN(C)C)[nH]c2c1C(=O)NCC2 [compound 434],100 to 1000,< 100,< 100,< 100
COc1c(Cl)cc(F)cc1Nc1c(-c2ccncc2C#C[C@@]2(C)CCCN2C(=O)/C=C/CN(C)C)[nH]c2c1C(=O)NCC2 [compound 435],100 to 1000,< 100,< 100,< 100
COc1c(Cl)cccc1Nc1c(-c2ccncc2C#CC23CC(CN2C(=O)/C=C/CN(C)C)C3)[nH]c2c1C(=O)NCC2 [compound 436],100 to 1000,< 100,< 100,< 100
COc1c(F)cccc1Nc1c(-c2ccncc2C#CC23CC(CN2C(=O)/C=C/CN(C)C)C3)[nH]c2c1C(=O)NCC2 [compound 437],100 to 1000,< 100,< 100,< 100
C=CC(=O)NC1(C#Cc2cnccc2-c2[nH]c3c(c2Nc2cc(F)cc(Cl)c2OC)C(=O)NCC3)COC1 [compound 440],100 to 1000,< 100,< 100,< 100
COc1c(F)cccc1Nc1c(-c2ccncc2C#C[C@@]2(C)CCCN2C(=O)/C=C/CN2CC(OC)C2)[nH]c2c1C(=O)NCC2 [compound 441],100 to 1000,< 100,< 100,< 100
COc1c(F)cccc1Nc1c(-c2ccncc2C#C[C@@]2(C)CCCN2C(=O)/C=C/CN2CCOCC2)[nH]c2c1C(=O)NCC2 [compound 442],> 1000,100 to 1000,100 to 1000,100 to 1000
COc1c(F)cccc1Nc1c(-c2ccncc2C#C[C@@]2(C)CCCN2C(=O)/C=C/CN2CC[C@H](OC)C2)[nH]c2c1C(=O)NCC2 [compound 443],100 to 1000,< 100,< 100,< 100
COc1c(F)cccc1Nc1c(-c2ccncc2C#C[C@@]2(C)CCCN2C(=O)/C=C/CN2CC[C@@H](OC)C2)[nH]c2c1C(=O)NCC2 [compound 444],100 to 1000,< 100,< 100,< 100
